In patent US20050124618A1, “Methods of modulating angiogenesis and cancer cell proliferation” (priority 2003, published 2005):
Entries after “also recorded” stand apart in the source; their conditions may differ.

Key:
p42/p44 MAPK = assay: Western blot of phospho-p42/p44 MAPK in U251 cells; type: cell-based, human; conditions: 10 μM HET0016, 24 and 48 hr
Experimental: They were then pelleted by centrifugation at 1,000 g for 5 min at 4° C. Cells were lysed by adding RIPA buffer [20 mM HEPES (pH 7.4), 100 mM NaCl, 1% Nonidet P-40, 0.1% SDS, 1% deoxycholic acid, 10% glycerol, 1 mM EDTA, 1 mM NaVO3, 50 mM NaF, and Protease Inhibitors Set 1 (Calbiochem, La Jolla, Calif.)]. Plates were then scraped and cells collected in a 1.5-ml centrifuge tube, followed by incubation on ice for 30 min. Homogenates of the cell suspension were centrifuged for 10 min at 14,000 g and 4° C.; the pellets were discarded and protein concentrations in the supernatant determined by bicinchoninic acid (BCA) protein assay.
Typically, 20 μg of protein was separated on a 14% Tris-glycine gel (Invitrogen) and electroblotted on a PVDF membrane (Biotrace, Bothell, Wash.). Membranes were blocked for 1 h at room temperature with blocking buffer [0.2% I-Block reagent (Tropix, Bedford, Mass.), 0.1% Tween-20 in […]] before incubation with primary antibodies in blocking buffer (overnight at 4° C.). […] Both phospho-tyrosine (Y102) and phospho-serine/threonine-Pro MPM2 were detected using a 1:2000 dilution of the corresponding antibodies, whereas phospho-p44/p42MAPK and phospho-SAPK/JNK were detected using 1:1000 antibody dilutions. […]

9L rat gliosarcoma cells = assay: [3H]thymidine incorporation in 9L cells; type: cell-based; conditions: 10 μM HET0016
Experimental: [^3H]Thymidine Incorporation Studies: Thymidine incorporation studies were performed with cells grown in 35-mm culture dishes. […] Palmitic acid and EtOH served as nonspecific fatty acid and vehicle controls, respectively. At the end of the pulse, the medium was aspirated and the cells rinsed twice with cold 1× phosphate buffered saline (PBS). The rinsed cultures were fixed by exposure to cold 5% trichloracetic acid overnight at 4° C., after which fixed cells were extracted as described previously (Scholler et al., Mol. Pharmacol. 45: 944-954, 1994). A second set of non-fixed dishes was treated with 0.05% trypsin/EDTA to estimate cell numbers. [^3H]thymidine was detected by scintillation counting and expressed as dpm/10^3 cells.

U251 human glioma cells = assay: Flow cytometry of cell cycle distribution in U251 cells; type: cell-based; conditions: 10 μM HET0016, 24 and 48 hr
Experimental: Flow Cytometry: Cells were cultured in 100-mm dishes at densities that ensured exponential growth at the time of harvest. The harvesting and processing protocols used to detect DNA by flow cytometry with propidium iodide (PI) have been described previously (Reiners et al., Carcinogenesis 20: 1561-1566, 1999). Cells were analyzed with a Becton Dickinson FACScan in the Wayne State University Flow Cytometry Core Facility, Detroit, Mich. Percentages of cells in the G0/G1, S, and G2/M stages of the cell cycle were determined with a DNA histogram-fitting program (MODFIT; Verity Software, Topsham, Me.). A minimum of 10^4 events/sample were collected.

HUVECs = assay: Proliferation of normal HUVECs (comparison with U251); type: cell-based, human; conditions: 10 μM HET0016, 48 hrs; DDMS concentration not given
Experimental: Mean values±SD from three separate experiments, each performed in triplicate, are presented. *** indicates p<0.001 from the respective control values.
Cell Proliferation Assays: Proliferation studies were performed with cultures plated at a density that ensured exponential growth for at least 5 days. Growth medium was generally replaced by serum-free medium 24 hr after plating. Cells were treated with various concentrations of a given compounds for 24 or 48 hr as described in the Methods. […] Organic solvent never exceeded 0.1% of total culture volume. Cells were harvested by exposure to 0.05% trypsin/EDTA and counted using a hemocytometer.

SAPK/JNK = assay: Western blot of phospho-SAPK/JNK in 9L cells; type: cell-based, rat; conditions: 10 μM HET0016; 4 hr, 24 hr, 48 hr
Experimental: They were then pelleted by centrifugation at 1,000 g for 5 min at 4° C. The cells were lysed by adding RIPA buffer [20 mM HEPES (pH 7.4), 100 mM NaCl, 1% Nonidet P-40, 0.1% SDS, 1% deoxycholic acid, 10% glycerol, 1 mM EDTA, 1 mM NaVO3, 50 mM NaF, and protease inhibitors Set 1 (Calbiochem, La Jolla, Calif.)]. The plates were then scraped and the cells were collected in a 1.5-ml centrifuge tube, followed by incubation on ice for 30 min. The cell homogenates were centrifuged for 10 min at 14,000 g and 4° C.; the pellets were discarded and the protein concentrations in the supernatant determined by bicinchoninic acid (BCA) protein assay.
Typically, 20 μg of protein obtained from the cell homogenates was separated on a 14% Tris-glycine gel (Invitrogen) and transferred to a PVDF membrane (Biotrace, Bothell, Wash.). The membranes were blocked for 1 hr at room temperature with blocking buffer [0.2% I-Block reagent (Tropix, Bedford, Mass.), 0.1% Tween-20 in 1×PBS] and then incubated with the primary antibodies in blocking buffer overnight at 4° C. Phospho-p42/p44 MAPK (T202/Y204)(20G11), and phospho-SAPK/JNK (T183/Y185) (98F2) monoclonal antibodies were purchased from Upstate (Waltham, Mass.). […] Both phospho-p44/p42MAPK and phospho-SAPK/JNK were detected using 1:1000 antibody dilutions. […]

With `CCCCc1ccc(N=CNO)c(C)c1` [HET0016, N-hydroxy-N′-(4-butyl-2 methylphenyl) formamidine] the “phosphorylation of p42/p44 MAPK” value (p42/p44 MAPK) was “specifically inhibited phosphorylation”, the “reduction of thymidine incorporation in 9L cultures” value (9L rat gliosarcoma cells) was 60% and the “effect on cell cycle distribution” value (U251 human glioma cells) was “arresting the cell cycle at G0/G1; also recorded: Cells containing G0/G1 DNA accumulated”. For the same molecule, the “effect on basal growth or proliferation of normal HUVECs” value (HUVECs) was “Neither DDMS or HET0016 had any effect; also recorded: had no effect on the basal growth or proliferation; also recorded: had no effect on the proliferation” and the “phosphorylation of SAPK/JNK” value (SAPK/JNK) was “decreases the phosphorylation; also recorded: significantly reduced the phosphorylation; also recorded: inhibition appears to peak at 48 hr”.
